Results as given in US8471061B2 (priority 2004, dated 2013).

Columns and labels:
[1] = system: radish; test: Plant activating effect, foliar application, radish; assay type: in vivo; conditions: 21 days, 12 seeds
Method: After 600 g of upland soil was packed in a porcelain pot of 12 cm in inner diameter, 12 grains of radish seeds were sowed therein, covered with 5 mm in depth of the soil and allowed to grow in a green house. Foliar application treatment was carried out once a day using the following application liquids. Conditions of the leaves 21 days thereafter were observed.

[2] = Chloride ion concentration of aqueous solutions by ion chromatography; assay type: physicochemical; conditions: detection limit 0.1 ppm; each sample
Method: When chloride ion concentration in the aqueous 5-aminolevulinic acid phosphate solutions used in the above-described examples was measured by ion chromatography under the following conditions, it was equal to or lower than the detection limit (0.1 ppm) in each sample.
The measuring conditions are as follows; A: separation column (IonPac AS12A manufactured by Japan Dionex), B: guard column (IonPac AG12A manufactured by Japan Dionex), C: eluting solution (an aqueous solution containing Na2CO3: 3.0 mmol/l and NaHCO3: 0.5 mmol/l), D: flow rate (1.5 ml/min), E: suppressor (ASRS (recycle mode, current value 50 mA)), F: amount of introduced sample (25 μl), G: temperature of constant temperature oven (35° C.) and H: detector (electric conductivity detector).
When chloride ion concentration in the aqueous 5-aminolevulinic acid nitrate solutions used in the above-described examples was measured by ion chromatography under the following conditions, it was equal to or lower than the detection limit (0.1 ppm) in each sample.
The measuring conditions are as follows: A: separation column (IonPac AS12A manufactured by Japan Dionex), B: guard column (IonPac AG12A manufactured by Japan Dionex), C: eluting solution (an aqueous solution consisting of Na2CO3: 3.0 mmol/l and NaHCO3: 0.5 mmol/l), D: flow rate (1.5 ml/min), E: suppressor (ASRS (recycle mode, current value 50 mA)), F: amount of introduced sample (25 μl), G: temperature of constant temperature oven (35° C.) and H: detector (electric conductivity detector).
When chloride ion concentration in the aqueous 5-aminolevulinic acid p-toluenesulfonate solutions used in the above-described examples was measured by ion chromatography under the following conditions, it was equal to or lower than the detection limit (0.1 ppm) in each sample.

[3] = system: apple variety “Fuji”; test: Coloring test of apple; assay type: in vivo; conditions: for Coloring of red compared with 5-aminolevulinic acid hydrochloride: in vivo
Method: The 5-aminolevulinic acid phosphate obtained in Example 1 was dissolved in ion exchange water to the predetermined concentration shown in the following table. A spreader (“Approach BI” manufactured by Maruwa Biochemical) was added to the liquid to a concentration of 0.1% by weight. The pH was adjusted using phosphoric acid.
An aqueous 5-aminolevulinic acid hydrochloride solution was prepared in the same manner, except that the above-described 5-aminolevulinic acid phosphate was changed to 5-aminolevulinic acid hydrochloride and the phosphoric acid for pH adjustment was changed to hydrochloric acid.
The thus prepared liquid was sprayed at a ratio of 2 liters per branch on three main branches where young fruits of an apple variety “Fuji” bored but not yet colored into red (September 15). About 2 months thereafter (November 6), the apples were harvested and their coloring degree was examined. A color meter CR-200 manufactured by MINOLTA CAMERA was used for the measurement of color.
The 5-aminolevulinic acid nitrate obtained in Example 16 was dissolved in ion exchange water to the predetermined concentration shown in Table 16. A spreader (“Approach BI” manufactured by Maruwa Biochemical) was added to the liquid to a concentration of 0.1% by weight. The pH was adjusted using nitric acid.
A solution was prepared in the same manner, except that the above-described 5-aminolevulinic acid nitrate was changed to 5-aminolevulinic acid hydrochloride and the nitric acid was changed to hydrochloric acid.
The 5-aminolevulinic acid p-toluenesulfonate obtained in Example 23 was dissolved in ion exchange water to the predetermined concentration shown in Table 24. A spreader (“Approach B1” manufactured by Maruwa Biochemical) was added to the liquid to a concentration of 0.1% by weight. The pH was adjusted using p-toluenesulfonic acid.
A solution was prepared in the same manner, except that the above-described 5-aminolevulinic acid p-toluenesulfonate was changed to 5-aminolevulinic acid hydrochloride and the p-toluenesulfonic acid was changed to hydrochloric acid.

[4] = Test on the generation of silver chloride precipitation with silver nitrate; assay type: physicochemical; conditions: 0.5 g with 0.5 g of silver nitrate in 10 ml of ion exchange water, 5 minutes
Method: In 10 ml of ion exchange water, 0.5 g of 5-aminolevulinic acid phosphate and 0.5 g of silver nitrate were dissolved, the mixture was allowed to stand still for 5 minutes, and conditions of the liquid was observed. […] In this connection, 0.5 g of 5-aminolevulinic acid hydrochloride and 0.5 g of silver nitrate were dissolved in 10 ml of ion exchange water and allowed to stand still for 5 minutes, and conditions of the liquid was observed.
In 10 ml of ion exchange water, 0.5 g of 5-aminolevulinic acid nitrate and 0.5 g of silver nitrate were dissolved, the mixture was allowed to stand still for 5 minutes, and conditions of the liquid was observed.
In this connection, 0.5 g of 5-aminolevulinic acid hydrochloride and 0.5 g of silver nitrate were dissolved in 10 ml of ion exchange water and allowed to stand still for 5 minutes, and conditions of the liquid was observed.
In 10 ml of ion exchange water, 0.5 g of 5-aminolevulinic acid p-toluenesulfonate and 0.5 g of silver nitrate were dissolved, the mixture was allowed to stand still for 5 minutes, and conditions of the liquid was observed.

[5] = system: Chlorella sp.; test: Culturing of plankton; assay type: cell-based; conditions: for amount of cells: OD 660 nm: 1 mM additive
Method: 5-Aminolevulinic acid nitrate was added, to a concentration of 1 mM (194 ppm), to 100 ml of a sterilized culture shown in Table 17 (components of the culture), and a Chlorella sp. was inoculated therein and cultured on a reciprocal shaker at 30° C. under aerobic and dark conditions to measure the amount of cells (OD 660).
5-Aminolevulinic acid hydrochloride was added, to a concentration of 1 mM (168 ppm), to 100 ml of the sterilized culture shown in Table 17 (components of the culture), and the Chlorella sp. was inoculated therein and cultured on a reciprocal shaker at 30° C. under aerobic and dark conditions to measure the amount of cells (OD 660).
The Chlorella sp. was inoculated into 100 ml of the sterilized culture shown in Table 17 (components of the culture) and cultured on a reciprocal shaker at 30° C. under aerobic and dark conditions to measure the amount of cells (OD 660).

[6] = Degradation test by sterilization; assay type: physicochemical
Method: Firstly, 50 mg of 5-aminolevulinic acid p-toluenesulfonate or 5-aminolevulinic acid hydrochloride was heat sterilized (121° C., 20 minutes, 1.5 kgf/cm^2). After confirming that there is no change in weight before and after the sterilization, degree of degradation of 5-aminolevulinic acid before and after the sterilization was verified by the method described in a reference (Clin. Chem., 36/8, 1494 (1990)).

Which “plants judged 0: Abnormality was not found on the leaf surface” value ([1]; 1 ppm in tap water) does the source give for `NCC(=O)CCC(=O)O.O=[N+]([O-])O` [5-aminolevulinic acid nitrate, 5-aminolevulinic Acid Nitrate] here?
Its value is 5 plants.

And the “plants judged 1: A region discolored to yellow was found on the leaf surface” value (shortened to “plants judged 1: A region discolored”) ([1]; 1 ppm in tap water)?
The value was 5 plants.

What about the “plants judged 2: A necrotic region was found on the leaf surface” value ([1]; 1 ppm in tap water) of the same compound?
The value was 2 plants.

And the “plants judged 0: Abnormality was not found on the leaf surface” value ([1]; 10 ppm in tap water)?
The value was 6 plants.

What about the “plants judged 1: A region discolored” value ([1]; 10 ppm in tap water) of the same compound?
The value was 5 plants.

What about the “plants judged 2: A necrotic region was found on the leaf surface” value ([1]; 10 ppm in tap water) of the same compound?
Its value is 1 plant^ plants.

And the “plants judged 0: Abnormality was not found on the leaf surface” value ([1]; 100 ppm in tap water)?
The value was 4 plants.

What about the “plants judged 1: A region discolored” value ([1]; 100 ppm in tap water) of the same compound?
Its value is 6 plants.

And the “plants judged 2: A necrotic region was found on the leaf surface” value ([1]; 100 ppm in tap water)?
Its value is 2 plants.

What about the “chloride ion concentration in the aqueous solutions used in the examples” value [2] of the same compound?
Its value is at most 0.1 ppm.

And the “Coloring, L” value ([3]; 100 ppm (pH 5.0))?
Its value is 42.41.

What about the “Coloring, a” value ([3]; 100 ppm (pH 5.0)) of the same compound?
Its value is 26.51.

And the “Coloring, b” value ([3]; 100 ppm (pH 5.0))?
The value was 14.46.

And the “Coloring, L” value ([3]; 200 ppm (pH 4.9))?
The value was 42.47.

And the “Coloring, a” value ([3]; 200 ppm (pH 4.9))?
The value was 31.00.

And the “Coloring, b” value ([3]; 200 ppm (pH 4.9))?
Its value is 14.72.

What about the “Coloring of red compared with 5-aminolevulinic acid hydrochloride” value [3] of the same compound?
The value was “Coloring of red was denser”.

What about the generation of precipitate [4] of the same compound?
The generation of precipitate was “Generation of the precipitate was not found”.

And the “effect on Chlorella culture compared with hydrochloride” value [5]?
Its value is “showed the same effect of 5-aminolevulinic acid hydrochloride”.

And the “amount of cells: OD 660 nm” value ([5]; Culture time 0 day)?
Its value is 1.8.

And the “amount of cells: OD 660 nm” value ([5]; Culture time 1 day)?
The value was 6.5.

What about the “amount of cells: OD 660 nm” value ([5]; Culture time 2 day) of the same compound?
Its value is 12.6.

And the “amount of cells: OD 660 nm” value ([5]; Culture time 3 day)?
Its value is 15.0.

What does the source list for `Cc1ccc(S(=O)(=O)O)cc1.NCC(=O)CCC(=O)O` [5-aminolevulinic acid p-toluenesulfonate, 5-aminolevulinic Acid p-toluenesulfonate]?
plants judged 0: Abnormality was not found on the leaf surface ([1]; 1 ppm in tap water): 6 plants; plants judged 1: A region discolored to yellow was found on the leaf surface ([1]; 1 ppm in tap water): 3 plants; plants judged 2: A necrotic region was found on the leaf surface ([1]; 1 ppm in tap water): 3 plants; plants judged 0: Abnormality was not found on the leaf surface ([1]; 10 ppm in tap water): 5 plants; plants judged 1: A region discolored to yellow was found on the leaf surface ([1]; 10 ppm in tap water): 5 plants; plants judged 2: A necrotic region was found on the leaf surface ([1]; 10 ppm in tap water): 2 plants; plants judged 0: Abnormality was not found on the leaf surface ([1]; 100 ppm in tap water): 7 plants; plants judged 1: A region discolored to yellow was found on the leaf surface ([1]; 100 ppm in tap water): 4 plants; plants judged 2: A necrotic region was found on the leaf surface ([1]; 100 ppm in tap water): 1 plant^ plants; chloride ion concentration in the aqueous solutions used in the examples [2]: ≤ 0.1 ppm; Coloring, L ([3]; 100 ppm (pH 5.0)): 42.39; Coloring, a ([3]; 100 ppm (pH 5.0)): 26.44; Coloring, b ([3]; 100 ppm (pH 5.0)): 14.69; Coloring, L ([3]; 200 ppm (pH 4.9)): 42.36; Coloring, a ([3]; 200 ppm (pH 4.9)): 30.93; Coloring, b ([3]; 200 ppm (pH 4.9)): 14.34; Coloring of red compared with 5-aminolevulinic acid hydrochloride [3]: Coloring of red was denser; degradability by high temperature heat sterilization compared with hydrochloride [6]: lower degradability; Degradation degree (%) ([6]; 50 mg heat sterilized, 121° C., 20 minutes, 1.5 kgf/cm^2): 2.7%; generation of precipitate [4]: Generation of the precipitate was not found
